Read-outs that look alike come from different tables or passages of the source.
Columns and labels:
GLP-1 secretion = GLP-1 secretion (ELISA); format: cell-based
Description: Similarly, the present indole compounds also modify the activity of glucagon-like peptide 1 (GLP-1), which plays a critical role in hyperglycemia and diabetes in humans. Glucagon-like peptide 1 (GLP-1) is derived from transcription of the proglucagon gene followed by post-translational modifications of proglucagon to the following biologically active peptides: GLP-1 (7-37) and GLP-1 (7-36)-NH2. GLP-1 secretion by ileal L cells is dependent on the presence of nutrients in the lumen of the small intestine. GLP-1 is a potent anti-hyperglycemic hormone that induces glucose-dependent insulin secretion and suppresses glucagon secretion.
GLP-1 secretion is measured using an ELISA designed to detect the appropriate forms of GLP-1 secreted from these cells. See, for example, Gareth E. Kim and Patricia L. Brubaker (December 2006) “Glucagon-Like Peptide 1 Secretion by the L-Cell,” Diabetes: 55 (supplement 2).

PCSK9 secretion = PCSK9 secretion in HepG2 cells; format: cell-based; details: Homo sapiens
Description: (§1) PCSK9 expression is actively regulated at transcription levels. Statins are known to stimulate PCSK9 transcription which in turn curbs the efficacy of statins in LDL lowering in humans. […] A number of primary and secondary assays to measure PCSK9 secretion/modulation in response to putative active agents are known. Primary assays: PCSK9 Secretion HepG2 SP/CRC (% Inhibition/IC50); PCSK9 Secretion Cell Health HepG2 SP/CRC (% Inhibition/IC50); and Metabolic Luciferase Reporter Assay CRC (IC50). Secondary assays: PCSK9 ELISA HepG2 CRC (IC50); ApoA-1 ELISA HepG2 CRC (IC50), and Profiling Biochemical Activity—Kinase Panel SP/CRC (% Efficacy/IC50). All of these assays are publicly accessible via Lilly's Open Innovation Drug Discovery program (as well as other sources).

protein secretion = assay: Non-selective inhibition at protein secretion; format: cell-based; details: Homo sapiens; HepG2 cells; read-out: IC50-C non-selective inhibition at protein secretion
Description: as §1

[1] = Cytotoxicity (PCSK9 Secretion Cell Health HepG2); format: cell-based; details: human, HepG2 cells; read-out: IC50-B cytotoxicity
Description: as §1

IL17 secretion = IL17 secretion from human PBMCs stimulated with IL23, anti-CD3 and anti-CD28; format: cell-based; details: PBMC
Description: The present compounds are thus useful to treat autoimmune disorders such as (but not limited to) arthritis, multiple sclerosis, psoriasis, and inflammatory bowel disease. The IL-17 pathway plays an essential pathological role in many autoimmune diseases including arthritis, multiple sclerosis, psoriasis, and inflammatory bowel disease. IL-17 is produced and secreted by at least two classes of lymphocytes, δγ and CD4+ T cells (Th17). The orphan nuclear receptor RORg is required for the differentiation of Th17 cells where over-expression in human and rodent T cells induces transcripts found in Th17 cells encoding key cytokines for the IL23 receptor and chemokines for the CCR6 receptor. In addition to RORg, recent global analysis of transcription factors has highlighted the molecular complexity of the Th17 differentiation program.
Active compounds are identified by measuring their ability to inhibitor IL17 secretion from human peripheral blood mononuclear cells (PBMCs) following stimulation of memory T cells by IL23, anti-CD3, and anti-CD28. See M. Ciofani, et al (2012) “A validated regulatory network for Th17 cell specification.” Cell, 151:289-303.

IL5 = IL5 inhibition; format: cell-based
[2] = HepG2 cells, read-out: IC50-A inhibition of PCSK9 secretion

SMILES | EC50 (GLP-1 secretion) | melting point | IC50 (PCSK9 secretion; HepG2, read-out: PCSK9, IC50) | IC50 (PCSK9 secretion; [2]) | IC50 (protein secretion) | IC50 (IL17 secretion) | IC50 (IL5) | IC50 [1]
Cc1ccc(S(=O)(=O)n2c([C@@H]3CC3c3ccccc3)c(C)c3ccccc32)cc1 (stereo in doubt) [8b, 3-methyl-2-(2-phenylcyclopropyl)-1-tosyl-1H-indole] | – | 156 to 157 °C | 21 µM | 21 µM | – | – | – | –
COc1ccc(C2C[C@@H]2c2c(C)c3ccccc3n2S(=O)(=O)c2ccc(C)cc2)cc1 (stereo in doubt) [8a, 2-(2-(4-methoxyphenyl)cyclopropyl)-3-methyl-1-tosyl-1H-indole] | – | 155 to 156 °C | 1.8 µM | 1.8 µM | > 50 µM | 10 µM | > 30 µM | > 50 µM
Cc1ccc(S(=O)(=O)n2c([C@H]3C[C@H]3c3ccc4c(c3)OCO4)c(C)c3ccccc32)cc1 [8f, 2-(2-(benzo[d][1,3]dioxol-5-yl)cyclopropyl)-3-methyl-1-tosyl-1H-indole] | – | 106 to 107 °C | 9.9 µM | 9.9 µM | > 50 µM | 7.3 µM | > 30 µM | > 50 µM

The next lines start with results.

EC50 (GLP-1 secretion) | melting point | IC50 (PCSK9 secretion; HepG2, read-out: PCSK9, IC50) | IC50 (PCSK9 secretion; [2]) | IC50 (protein secretion) | IC50 (IL17 secretion) | IC50 (IL5) | SMILES | IC50 [1]
28.4 µM | 75 to 76 °C | – | – | – | – | – | COc1ccc(C2C=CCCc3c2c2ccccc2n3S(=O)(=O)c2ccc(C)cc2)cc1 (stereo not shown) [compound 14, (Z)-10-(4-methoxyphenyl)-5-tosyl-5,6,7,10-tetrahydrocyclohepta[b]indole] | –
– | – | 0.7 µM | 0.7 µM | > 50 µM | – | – | CCc1c(C2CC2c2ccc(OC)cc2)n(S(=O)(=O)c2ccc(C)cc2)c2ccccc12 (stereo not shown) [10g, 3-ethyl-2-(2-(4-methoxyphenyl)cyclopropyl)-1-tosyl-1H-indole] | > 50 µM
7.3 µM | 57 to 58 °C | – | – | – | – | – | Cc1ccc(S(=O)(=O)n2c(C3C[C@]3(CO)c3ccccc3)c(C)c3ccccc32)cc1 (stereo in doubt) [8i, (2-(3-methyl-1-tosyl-1H-indol-2-yl)-1-phenylcyclopropyl)methanol] | –
